This series in a line: Stability Identification-Content Measurement (HPLC content after storage in HDPE bottle). It counts as physicochemical. The protocol:
80 mg of the novel crystalline form of the compound prepared in Example 2 and 80 mg of a standard product with a purity of 99.9% prepared by the process described in Example 2 were accurately weighed, placed in 100 ml volumetric flasks, and dissolved in dimethylformamide. The volumes of the solutions were adjusted to the marked lines of the flasks to prepare test solutions and standard solutions, respectively. Each of the solutions was analyzed by column chromatography under the following conditions: • Column: Zorbax Rx C8 (4.6 mm×250 mm, 5 μm) or its equivalent • Mobile Phase (0.05 M ammonium acetate buffer (pH=5.0)/acetonitrile/tetrahydrofuran) Mobile Phase A: • 0.05 M ammonium acetate buffer (pH=5.0)/acetonitrile/tetrahydrofuran (67/21/12) Mobile Phase B: • 0.05M ammonium acetate buffer (pH=5.0)/acetonitrile/tetrahydrofuran (54/34/12) • Detector: UV absorption spectrophotometer (wavelength: 244 nm) • Flow Rate: 1.0 mL/min. • Column Temperature: 35±2° C. • Storage: in HDPE bottle
The contents of the compound prepared in Example 2 were quantified by the area under each peak. Variations in the content of the compound were evaluated at room temperature, in a freezer, under accelerated storage conditions and under extreme storage conditions over the periods indicated in Table 6, and the results are shown in Table 6.

As for “[R—(R*,R*)]-2-(4-fluorophenyl)-β,δ-dihydroxy-5-(1-methylethyl)-3-phenyl-4-[(phenylamino)carbonyl]-1H-pyrrole-1-heptanoic acid hemicalcium salt [Example 2]”, the “content of the compound” value was 98.82% (40° C./75% RH (accelerated storage), 1 month); 98.33% (40° C./75% RH (accelerated storage), 2 months); 98.03% (40° C./75% RH (accelerated storage), 3 months); 98.01% (60° C./Dry (extreme storage), 1 month); 98.72% (at room temp., 1 month); 98.58% (at room temp., 2 months). Moreover, the “content of the compound” value runs as follows: (at room temp., 3 months) 98.12%; (at room temp., 6 months) 98.56%; (in freezer, 1 month) 99.74%; (in freezer, 2 months) 99.31%; (in freezer, 3 months) 100.19%; (in freezer, 6 months) 98.11%.

(Values after patent US7915302B2, “Crystal forms of pyrrolylheptanoic acid derivatives” (Dong-A Pharm. Co., Ltd., priority 2007, dated 2011).)
